T1: PqsC^C129A (P. aeruginosa PAO1, UniProt Q9I4X1 2-348, C129A)
T1 construct: also called PqsC subunit of PqsBC^C129A
T1 sequence: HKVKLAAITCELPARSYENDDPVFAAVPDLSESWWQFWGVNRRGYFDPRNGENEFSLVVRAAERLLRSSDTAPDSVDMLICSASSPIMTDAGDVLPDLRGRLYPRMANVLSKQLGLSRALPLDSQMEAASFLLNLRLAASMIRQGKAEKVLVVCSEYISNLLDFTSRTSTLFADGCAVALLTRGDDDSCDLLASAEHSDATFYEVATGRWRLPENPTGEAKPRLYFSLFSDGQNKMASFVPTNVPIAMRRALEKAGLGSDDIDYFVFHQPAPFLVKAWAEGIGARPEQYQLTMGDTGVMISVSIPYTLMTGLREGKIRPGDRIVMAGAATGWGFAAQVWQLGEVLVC


Legend:
PqsBC [1] = biological target: T2, PqsBC (Pseudomonas aeruginosa, UniProt Q9I4X1, C129S); test: biochemical
T2 construct: gene pqsC

PqsBC [2] = biological target: T3, PqsBC (Pseudomonas aeruginosa, UniProt Q9I4X1, V299N); test: biochemical
T3 construct: gene pqsC

PqsBC [3] = biological target: T4, PqsBC (Pseudomonas aeruginosa, UniProt Q9I4X1, H269A); test: biochemical
T4 construct: gene pqsC

PqsBC [4] = biological target: T5, PqsBC (Pseudomonas aeruginosa, UniProt Q9I4X1, C129A); test: biochemical
T5 construct: gene pqsC

PqsC^C129A = biological target: T1, PqsC^C129A; test: crystal structure; PqsBC^C129A crystallised in 25% PEG 3350, 0.1 M Tris pH 8.3, 0.2 M NaCl; 2.0 Å; four copies of PqsB and four of PqsC in the asymmetric unit; conditions: both partners purified

T4 sequence (Q9I4X1 whole entry, stated change not applied, one chain of several): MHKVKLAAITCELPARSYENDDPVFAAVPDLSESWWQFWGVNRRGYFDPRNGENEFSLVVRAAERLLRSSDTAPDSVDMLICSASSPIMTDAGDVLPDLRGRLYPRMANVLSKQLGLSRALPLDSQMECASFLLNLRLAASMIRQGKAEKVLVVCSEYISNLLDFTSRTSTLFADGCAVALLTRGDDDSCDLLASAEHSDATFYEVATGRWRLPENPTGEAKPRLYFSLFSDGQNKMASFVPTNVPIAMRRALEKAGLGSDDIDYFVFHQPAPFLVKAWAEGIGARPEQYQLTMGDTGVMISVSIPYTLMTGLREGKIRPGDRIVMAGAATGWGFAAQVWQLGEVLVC
T2 sequence (Q9I4X1 whole entry, stated change not applied, one chain of several): as above
T5 sequence (Q9I4X1 whole entry, stated change not applied, one chain of several): as above
T3 sequence (Q9I4X1 whole entry, stated change not applied, one chain of several): as above

Molecule | Kd (PqsBC [1]) | Kd (PqsBC [2]) | Kd (PqsBC [3]) | Kd (PqsBC [4]) | binding result (PqsC^C129A)
CC(=O)c1ccccc1N [2-aminoacetophenone] | 170 ± 10 µM | > 1000 µM | 117 ± 6 µM | 158 ± 12 µM | 
Nc1ccccc1C(=O)CC(=O)O [2-aminobenzoylacetate] | 411 ± 43 µM | > 1000 µM | 198 ± 11 µM | 330 ± 30 µM | 
PqsB (natural protein, also called PqsB subunit of PqsBC) MLIQAVGVNLPPSYVCLEGPLGGERPRAQGDEMLMQRLLPAVREALDEAAVKPEEIDLIVGLALSPDHLIENRDIMAPKIGHPLQKVLGANRAHVFDLTDSSLARALYVVDTLASDQGYRNVLVVRGESSQGLEVDSESGFALADGALALLCRPTGKAAFRRGALGGDPAQEWLPLSIPLNTDIRQVGDVKGHLNLPAQPGLPEAVRAGFTRLAGDFPQLNWVREEWFGQGRPDGRCLGPFELASQLRAAQRDRLDELLLISFDPFGMVVEGVTLELAGEAHA |  |  |  |  | binds
